In brackets after ≈: the same amount, converted by molar mass. Activity calls are given as the source filed them. No cut-off for these calls is given here.
Experiments:
Pseudomonas aeruginosa [1] = assay: Antibacterial activity against Pseudomonas aeruginosa ATCC 15442 assessed as bacterial growth inhibition measured after 18 hrs by CLSI protocol based two-fold serial microdilution method; assay type: functional, organism-based
Pseudomonas aeruginosa [2] = assay: Antibacterial activity against Pseudomonas aeruginosa ATCC 27853 assessed as bacterial growth inhibition measured after 18 hrs by CLSI protocol based two-fold serial microdilution method; assay type: functional, organism-based
Escherichia coli [3] = assay: Antibacterial activity against Escherichia coli NCTC 8196 assessed as bacterial growth inhibition measured after 18 hrs by CLSI protocol based two-fold serial microdilution method; assay type: functional, organism-based
Escherichia coli [4] = assay: Antibacterial activity against Escherichia coli ATCC 25922 assessed as bacterial growth inhibition measured after 18 hrs by CLSI protocol based two-fold serial microdilution method; assay type: functional, organism-based
[5] = test system: Staphylococcus epidermidis; assay: Antibacterial activity against methicillin-resistant Staphylococcus epidermidis isolate 574 assessed as bacterial growth inhibition measured after 18 hrs by CLSI protocol based two-fold serial microdilution method; assay type: functional; conditions: isolate 574, 18 h
[6] = test system: Staphylococcus epidermidis; assay: Antibacterial activity against methicillin-resistant Staphylococcus epidermidis isolate 602 assessed as bacterial growth inhibition measured after 18 hrs by CLSI protocol based two-fold serial microdilution method; assay type: functional; conditions: isolate 602, 18 h
[7] = test system: Staphylococcus epidermidis; assay: Antibacterial activity against methicillin-resistant Staphylococcus epidermidis isolate 603 assessed as bacterial growth inhibition measured after 18 hrs by CLSI protocol based two-fold serial microdilution method; assay type: functional; conditions: isolate 603, 18 h
[8] = test system: Staphylococcus epidermidis; assay: Antibacterial activity against methicillin-resistant Staphylococcus epidermidis isolate 609 assessed as bacterial growth inhibition measured after 18 hrs by CLSI protocol based two-fold serial microdilution method; assay type: functional; conditions: isolate 609, 18 h
[9] = test system: Staphylococcus epidermidis; assay: Antibacterial activity against methicillin-resistant Staphylococcus epidermidis isolate 610 assessed as bacterial growth inhibition measured after 18 hrs by CLSI protocol based two-fold serial microdilution method; assay type: functional; conditions: isolate 610, 18 h
[10] = test system: Staphylococcus epidermidis; assay: Antibacterial activity against methicillin-resistant Staphylococcus epidermidis isolate 654 assessed as bacterial growth inhibition measured after 18 hrs by CLSI protocol based two-fold serial microdilution method; assay type: functional; conditions: isolate 654, 18 h
[11] = test system: Staphylococcus epidermidis; assay: Antibacterial activity against methicillin-resistant Staphylococcus epidermidis isolate 660 assessed as bacterial growth inhibition measured after 18 hrs by CLSI protocol based two-fold serial microdilution method; assay type: functional; conditions: isolate 660, 18 h
Staphylococcus aureus [12] = assay: Antibacterial activity against methicillin-resistant Staphylococcus aureus isolate 583 assessed as bacterial growth inhibition measured after 18 hrs by CLSI protocol based two-fold serial microdilution method; assay type: functional; conditions: isolate 583, 18 h
Staphylococcus aureus [13] = assay: Antibacterial activity against methicillin-resistant Staphylococcus aureus isolate 584 assessed as bacterial growth inhibition measured after 18 hrs by CLSI protocol based two-fold serial microdilution method; assay type: functional; conditions: isolate 584, 18 h
Staphylococcus aureus [14] = assay: Antibacterial activity against methicillin-resistant Staphylococcus aureus isolate 612 assessed as bacterial growth inhibition measured after 18 hrs by CLSI protocol based two-fold serial microdilution method; assay type: functional; conditions: isolate 612, 18 h
Staphylococcus aureus [15] = assay: Antibacterial activity against methicillin-resistant Staphylococcus aureus isolate 620 assessed as bacterial growth inhibition measured after 18 hrs by CLSI protocol based two-fold serial microdilution method; assay type: functional; conditions: isolate 620, 18 h
Staphylococcus aureus [16] = assay: Antibacterial activity against methicillin-resistant Staphylococcus aureus isolate 621 assessed as bacterial growth inhibition measured after 18 hrs by CLSI protocol based two-fold serial microdilution method; assay type: functional; conditions: isolate 621, 18 h
Staphylococcus aureus [17] = assay: Antibacterial activity against methicillin-resistant Staphylococcus aureus isolate 750 assessed as bacterial growth inhibition measured after 18 hrs by CLSI protocol based two-fold serial microdilution method; assay type: functional; conditions: isolate 750, 18 h
Staphylococcus aureus [18] = assay: Antibacterial activity against methicillin-resistant Staphylococcus aureus isolate 770 assessed as bacterial growth inhibition measured after 18 hrs by CLSI protocol based two-fold serial microdilution method; assay type: functional; conditions: isolate 770, 18 h
[19] = test system: Staphylococcus epidermidis; assay: Inhibition of biofilm formation in Staphylococcus epidermidis ATCC 35984 at 1 to 8 ug/ml measured after 24 hrs by crystal violet staining based assay; assay type: functional, organism-based
[20] = test system: Staphylococcus epidermidis; assay: Inhibition of biofilm formation in Staphylococcus epidermidis ATCC 12228 at 1 to 8 ug/ml measured after 24 hrs by crystal violet staining based assay; assay type: functional, organism-based
[21] = Genotoxicity in rec negative Bacillus subtilis M45 assessed as diameter of inhibition zone at 256 ug measured after 24 hrs by rec-assay; assay type: toxicity; conditions: in vivo
[22] = Genotoxicity in rec-positive Bacillus subtilis H17 assessed as diameter of inhibition zone at 256 ug measured after 24 hrs by rec-assay; assay type: toxicity; conditions: in vivo

SMILES | Activity (Pseudomonas aeruginosa [1]) | Activity (Pseudomonas aeruginosa [2]) | Activity (Escherichia coli [3]) | Activity (Escherichia coli [4]) | MIC [5] [µM] | MIC [6] [µM] | MIC [7] [µM] | MIC [8] [µM] | MIC [9] [µM] | MIC [10] [µM] | MIC [11] [µM] | MIC (Staphylococcus aureus [12]) [µM] | MIC (Staphylococcus aureus [13]) [µM] | MIC (Staphylococcus aureus [14]) [µM] | MIC (Staphylococcus aureus [15]) [µM] | MIC (Staphylococcus aureus [16]) [µM] | MIC (Staphylococcus aureus [17]) [µM] | MIC (Staphylococcus aureus [18]) [µM] | inhibition [19] | inhibition [20] | other results
C#CCNC(=O)[C@H](CC)[C@H]1CC[C@H](C)[C@H]([C@@H](C)[C@H](O)[C@H](C)C(=O)[C@H](CC)[C@H]2O[C@]3(C=C[C@@H](O)[C@]4(CC[C@@](C)([C@H]5CC[C@](O)(CC)[C@H](C)O5)O4)O3)[C@H](C)C[C@@H]2C)O1 | inactive | inactive | inactive | inactive | – | – | – | – | – | – | – | – | – | – | – | – | – | – | – | – | –
C#CCOC(=O)[C@H](CC)[C@H]1CC[C@H](C)[C@H]([C@@H](C)[C@H](O)[C@H](C)C(=O)[C@H](CC)[C@H]2O[C@]3(C=CC(=O)[C@]4(CC[C@@](C)([C@H]5CC[C@](O)(CC)[C@H](C)O5)O4)O3)[C@H](C)C[C@@H]2C)O1 | inactive | inactive | inactive | inactive | – | – | – | – | – | – | – | – | – | – | – | – | – | – | – | – | –
C#CCN[C@@H]1C=C[C@]2(O[C@H]([C@@H](CC)C(=O)[C@@H](C)[C@@H](O)[C@H](C)[C@@H]3O[C@@H]([C@@H](CC)C(=O)O)CC[C@@H]3C)[C@@H](C)C[C@H]2C)O[C@@]12CC[C@@](C)([C@H]1CC[C@](O)(CC)[C@H](C)O1)O2 | inactive | inactive | inactive | inactive | 1.27 (≈ 1 µg/mL) | 1.27 (≈ 1 µg/mL) | 1.27 (≈ 1 µg/mL) | 1.27 (≈ 1 µg/mL) | 2.54 (≈ 2 µg/mL) | 81.2 (≈ 64 µg/mL) | 40.6 (≈ 32 µg/mL) | 81.2 (≈ 64 µg/mL) | 81.2 (≈ 64 µg/mL) | 1.27 (≈ 1 µg/mL) | 2.54 (≈ 2 µg/mL) | 1.27 (≈ 1 µg/mL) | 1.27 (≈ 1 µg/mL) | 2.54 (≈ 2 µg/mL) | Active | Active | diameter of the inhibition zone (DIZ) [21]: 34 mm; diameter of the inhibition zone (DIZ) [22]: 30 mm
CC[C@@H](C(=O)[C@@H](C)[C@@H](O)[C@H](C)[C@@H]1O[C@@H]([C@@H](CC)C(=O)OCC(F)(F)F)CC[C@@H]1C)[C@H]1O[C@]2(C=C[C@@H](O)[C@]3(CC[C@@](C)([C@H]4CC[C@](O)(CC)[C@H](C)O4)O3)O2)[C@H](C)C[C@@H]1C | inactive | inactive | inactive | inactive | – | – | – | – | – | – | – | – | – | – | – | – | – | – | – | – | –
O=C(O)c1cn(C2CC2)c2cc(N3CCNCC3)c(F)cc2c1=O | – | – | – | – | – | – | – | – | – | – | – | – | – | – | – | – | – | – | Active | Active | –
CC[C@@H](C(=O)[C@@H](C)[C@@H](O)[C@H](C)[C@@H]1O[C@@H]([C@@H](CC)C(=O)O)CC[C@@H]1C)[C@H]1O[C@]2(C=CC(=O)[C@]3(CC[C@@](C)([C@H]4CC[C@](O)(CC)[C@H](C)O4)O3)O2)[C@H](C)C[C@@H]1C | inactive | inactive | inactive | inactive | 1.34 (≈ 1 µg/mL) | 2.67 (≈ 2 µg/mL) | 2.67 (≈ 2 µg/mL) | 2.67 (≈ 2 µg/mL) | 2.67 (≈ 2 µg/mL) | 5.34 (≈ 4 µg/mL) | 5.34 (≈ 4 µg/mL) | 2.67 (≈ 2 µg/mL) | 2.67 (≈ 2 µg/mL) | 2.67 (≈ 2 µg/mL) | 2.67 (≈ 2 µg/mL) | 2.67 (≈ 2 µg/mL) | 2.67 (≈ 2 µg/mL) | 2.67 (≈ 2 µg/mL) | Active | Active | diameter of the inhibition zone (DIZ) [21]: 34 mm; diameter of the inhibition zone (DIZ) [22]: 32 mm
CC[C@@H](C(=O)[C@@H](C)[C@@H](O)[C@H](C)[C@@H]1O[C@@H]([C@@H](CC)C(=O)O)CC[C@@H]1C)[C@H]1O[C@]2(C=C[C@@H](O)[C@]3(CC[C@@](C)([C@H]4CC[C@](O)(CC)[C@H](C)O4)O3)O2)[C@H](C)C[C@@H]1C [SALINOMYCIN] | inactive | inactive | inactive | inactive | 1.33 (≈ 0.999 µg/mL) | 1.33 (≈ 0.999 µg/mL) | 2.66 (≈ 2 µg/mL) | 1.33 (≈ 0.999 µg/mL) | 1.33 (≈ 0.999 µg/mL) | 5.33 (≈ 4 µg/mL) | 5.33 (≈ 4 µg/mL) | 2.66 (≈ 2 µg/mL) | 2.66 (≈ 2 µg/mL) | 1.33 (≈ 0.999 µg/mL) | 1.33 (≈ 0.999 µg/mL) | 2.66 (≈ 2 µg/mL) | 1.33 (≈ 0.999 µg/mL) | 2.66 (≈ 2 µg/mL) | – | – | diameter of the inhibition zone (DIZ) [21]: 34 mm; diameter of the inhibition zone (DIZ) [22]: 32 mm
CC[C@@H](C(=O)[C@@H](C)[C@@H](O)[C@H](C)[C@@H]1O[C@@H]([C@@H](CC)C(=O)NCC(F)(F)F)CC[C@@H]1C)[C@H]1O[C@]2(C=CC(=O)[C@]3(CC[C@@](C)([C@H]4CC[C@](O)(CC)[C@H](C)O4)O3)O2)[C@H](C)C[C@@H]1C | inactive | inactive | inactive | inactive | – | – | – | – | – | – | – | – | – | – | – | – | – | – | – | – | –
